Measurements from ChEMBL document CHEMBL5120941 (ACS Med Chem Lett, 2022).
Converted amounts (≈) assume the structure as drawn.

Tests used:
Staphylococcus aureus [1] = test: Antibacterial activity against Staphylococcus aureus ATCC 19636 infected ICR mouse septicemia model assessed as increase in animal's survival rate administered iv at 1 hr post-infection and measured after 48 hrs; type: functional
[2] = Aqueous solubility of the compound in deionized water at 25 degC; type: physicochemical
Staphylococcus aureus [3] = test: Antibacterial activity against Staphylococcus aureus ATCC 19636 infected Sprague-Dawley rat peritonitis model assessed as increase in animal's survival rate administered iv at 1 hr post-infection and measured after 48 hrs; type: functional
[4] = AUC (0 to 24 hrs) in Sprague-Dawley rat at 10 mg/kg, iv by HLPC-MS/MS analysis; type: ADME, organism-based; design: time < 24 hr, dose 10 mg/kg, route iv; conditions: in vivo

**Q.** With `O=C1C=CN(c2c(F)cc(N3C[C@H](CNc4ccon4)OC3=O)c(F)c2F)CC1` [CONTEZOLID] as the compound, how does the ED50 (Staphylococcus aureus [1]) read?
**A.** The ED50 was 4.7 mg/kg.

**Q.** What about the solubility [2] of the same compound?
**A.** The solubility was 200 µg/mL (≈ 490 µM).

**Q.** What about the ED50 (Staphylococcus aureus [3]) of the same compound?
**A.** Its ED50 is 10.3 mg/kg.

**Q.** And the AUC(0-t) at 24 h [4]?
**A.** Its AUC(0-t) at 24 h is 25400 ng·h/mL.
